# Measurements reported in PMC11141866, “Pyrimidine depletion enhances targeted and immune therapy combinations in acute myeloid leukemia” (JCI Insight, 2024).
# Where “and” joins values, the source holds several entries; their conditions need not be identical. Equal entries are not always repeated.
# What was measured:
# [1] = Single-dose HOSU-53 PK in mice; type: in vivo, male C57BL/6 mice
# Description: (§1) In the i.v. cohort, serial blood samples were collected in tubes containing K2EDTA at 0.083, 0.25, 0.5, 1, 2, 6, 24, 48, and 72 hours postdose while in the oral gavage cohort, serial blood samples were collected at 0.25, 0.5, 1, 2, 4, 8, 24, 48, and 72 hours postdose. Blood samples were processed to plasma to analyze for HOSU-53 and L-dihydroorotic acid (DHO) concentrations using liquid chromatography-tandem mass spectrometry. page 6: Plasma samples were obtained following appropriate dosing administration and saved in the -80°C freezer till the time of analysis. Analyses by LC-MS/MS followed sample extraction by protein precipitation and separation by Ultra Performance Liquid Chromatography (UPLC, Waters Corporation, MA, USA) using a C18 column, 1.7um, 2.1x50mm, Mobile Phase A: 5:95:0.1 (v:v:v) Acetonitrile:Water:Formic Acid, Mobile Phase B: 50:50:0.1 (v:v:v) Methanol:Acetonitrile:Formic Acid. MS/MS analyses were performed on an API-6500 (Absciex MA, USA) in positive mode using an electrospray source at 550°C. The internal standard was d4-AEA monitored at 352.2 and 66.0 m/z transitions and the target analyte, HOSU-53, was monitored at 416.5 and 331.1 m/z transitions. The assay was qualified between 10-5,000 ng/ml HOSU53 to be within ±20% for QCs above the LLOQ in this range and ±25% at the LLOQ. DHO concentration quantification in mouse plasma samples. Plasma samples were obtained following appropriate dosing administration and saved in the -80°C freezer till the time of analysis. Analyses by LC-MS/MS followed sample extraction by protein precipitation and separation by Ultra Performance Liquid Chromatography (UPLC, Waters Corporation, MA, USA) using a Phenomenex Aqua C18 100x4.6mm, 3uM, […], Mobile Phase A: 100:0.1 (v:v) Water:Formic Acid, Mobile Phase B: 100:0.1 (v:v) Methanol:Formic Acid. MS/MS analyses were performed on an API-4000 (Absciex MA, USA) in negative mode using an electrospray source at 550°C. The internal standard was labeled 13C14_L-Dihydroorotic Acid monitored at 161.3 and 117.1 m/z transitions and the target analyte, L-Dihydroorotic Acid (DHO), was monitored at 157.0 and 70.0 m/z transitions. The assay was qualified between 10.0-30,000 ng/ml DHO to be within ±20% for QCs above the LLOQ in this range and ±25% at the LLOQ.
# [2] = system: plasma dihydroorotate (DHO); test: Single-dose PD: plasma DHO accumulation in mice; type: in vivo, male C57BL/6 mice; conditions: HOSU-53 10 mpk PO, per mouse
# Description: as §1
# [3] = system: MOLM-13 disseminated CDX AML model; test: MOLM-13 CDX synergy with azacitidine / venetoclax; type: in vivo, NCG mice; conditions: HOSU-53 4 mg/kg po qd; event 1 = death, 0 = censored; 4 mg/kg
# Description: Female 8- to 12-week-old NCG mice were engrafted with 1 × 10^5 cells via tail vein i.v. injection. Four days postengraftment (day 1 of treatment), mice (n = 10/arm) were randomized to receive p.o. qd vehicle (40% HPβCD, n = 10; or 60% Phosal 50 PG, 30% PEG 400, and 10% ethanol, n = 10), 4 mg/kg HOSU-53, 25 mg/kg ven, or i.p. 1.5 mg/kg aza on a 5 days on/16 days off cycle, combinations of double regimens and triple regimens till moribundity or end of study, day 53.
# Supplemental Figure S.4. […] Using the FLT3 […]
# were enrolled to receive daily oral 4 mg/kg HOSU-53 to compare its monotherapy efficacy with daily oral 25 mg/kg venetoclax (ven) monotherapy or 1.5 mg/kg azacitidine (aza) HMA i.p. for five days every 16 days cycle monotherapy or the combination of aza/ven versus ven/ HOSU-53 versus aza/HOSU-53 versus the triple aza/ven/HOSU-53 regimen.
# [4] = male, C57BL/6, plasma, po, 10 mg/kg p.o. single dose, mouse
structure (smiles),measurement,setting,value
CCCCOc1cccc(-c2ccc(-c3cc(C(=O)O)c4cc(F)ccc4n3)cc2)c1 [HOSU-53],HOSU-53 plasma concentration,"[1]; 10 mpk PO, 0.25 h postdose, per mouse",130.695 µM and 175.464 µM
same,HOSU-53 plasma concentration,"[1]; 10 mpk PO, 0.5 h postdose, per mouse",155.968 µM and 199.774 µM
same,HOSU-53 plasma concentration,"[1]; 10 mpk PO, 1 h postdose, per mouse",185.332 µM and 227.213 µM
same,HOSU-53 plasma concentration,"[1]; 10 mpk PO, 2 h postdose, per mouse",171.131 µM and 199.774 µM
same,HOSU-53 plasma concentration,"[1]; 10 mpk PO, 4 h postdose, per mouse",168.002 µM and 190.146 µM
same,HOSU-53 plasma concentration,"[1]; 10 mpk PO, 8 h postdose, per mouse",182.925 µM and 197.848 µM
same,HOSU-53 plasma concentration,"[1]; 10 mpk PO, 24 h postdose, per mouse",152.839 µM and 120.105 µM
same,HOSU-53 plasma concentration,"[1]; 10 mpk PO, 48 h postdose, per mouse",81.835 µM and 67.6342 µM
same,HOSU-53 plasma concentration,"[1]; 10 mpk PO, 72 h postdose, per mouse",47.1755 µM and 36.5851 µM
same,concentration at 0.25 h,"[1]; male, C57BL/6, mouse, plasma, oral, 10 mg/kg, 10 mpk PO, 0.25 h postdose, per mouse",114 µM
same,concentration at 0.5 h,"[1]; male, C57BL/6, mouse, plasma, oral, 10 mg/kg, 10 mpk PO, 0.5 h postdose, per mouse",155 µM
same,concentration at 1 h,"[1]; male, C57BL/6, mouse, plasma, oral, 10 mg/kg, 10 mpk PO, 1 h postdose, per mouse",209 µM
same,concentration at 2 h,"[1]; male, C57BL/6, mouse, plasma, oral, 10 mg/kg, 10 mpk PO, 2 h postdose, per mouse",215 µM
same,concentration at 4 h,"[1]; male, C57BL/6, mouse, plasma, oral, 10 mg/kg, 10 mpk PO, 4 h postdose, per mouse",218 µM
same,concentration at 8 h,"[1]; male, C57BL/6, mouse, plasma, oral, 10 mg/kg, 10 mpk PO, 8 h postdose, per mouse",175 µM
same,concentration at 24 h,"[1]; male, C57BL/6, mouse, plasma, oral, 10 mg/kg, 10 mpk PO, 24 h postdose, per mouse",130 µM
same,concentration at 48 h,"[1]; male, C57BL/6, mouse, plasma, oral, 10 mg/kg, 10 mpk PO, 48 h postdose, per mouse",75.1 µM
same,concentration at 72 h,"[1]; male, C57BL/6, mouse, plasma, oral, 10 mg/kg, 10 mpk PO, 72 h postdose, per mouse",43.8 µM
same,bioavailability,"[1]; male, C57BL/6, plasma, oral, p.o. 10 mg/kg vs i.v. 3 mg/kg, mouse, read-out: Bioavailability (F)",85%
same,Cmax,[1]; [4],210 µM
same,half-life,[1]; [4],1740 min
same,AUC(0-t),"[1]; male, C57BL/6, plasma, po, 10 mg/kg p.o. single dose, mouse, read-out: Plasma AUC0–72h",7960 µM·h
same,DHO plasma concentration,[2]; 0.5 h postdose,0.2422 µM
same,DHO plasma concentration,"[2]; 1 h postdose, 10 mg/kg",0.6072 µM and 0.4288 µM and 0.8412 µM
same,DHO plasma concentration,"[2]; 2 h postdose, 10 mg/kg",2.068 µM and 1.512 µM and 1.613 µM
same,DHO plasma concentration,"[2]; 4 h postdose, 10 mg/kg",2.783 µM and 2.701 µM and 3.7758 µM
same,DHO plasma concentration,"[2]; 8 h postdose, 10 mg/kg",6.325 µM and 4.807 µM and 6.894 µM
same,DHO plasma concentration,"[2]; 24 h postdose, 10 mg/kg",9.613 µM and 11.9535 µM and 9.74 µM
same,DHO plasma concentration,"[2]; 48 h postdose, 10 mg/kg",4.364 µM and 4.453 µM and 2.467 µM
same,DHO plasma concentration,"[2]; 72 h postdose, 10 mg/kg",1.189 µM and 0.9613 µM and 1.132 µM
same,"Days of treatment (survival, per animal)",[3],42 days and 40 days and 37 days and 41 days
